Source: patent US11370776B2, “Sulfonylureas and sulfonylthioureas as NLRP3 inhibitors” (Inflazome Limited, priority 2017, dated 2022)
Counter-ions that a name gives are not always drawn. Like-named read-outs stand apart in the source and are kept apart here.

Biological target: NLRP3 (Homo sapiens, UniProt Q96P20)
Assay: THP-1 cells pyroptosis assay
Assay type: cell-based
Parameters: Seed THP-1 cells (25,000 cells/well) containing 1.0 μg/ml LPS; host or cells: THP-1 cells, LPS-primed, nigericin-stimulated
Procedure: The cells were routinely passaged and grown to confluency (˜10^6 cells/ml). On the day of the experiment, THP-1 cells were harvested and resuspended into RPMI medium (without FBS). The cells were then counted and viability (>90%) checked by Trypan blue (Sigma # T8154). […] To this diluted cell solution was added LPS (Sigma # L4524) to give a 1 μg/ml Final Assay Concentration (FAC). 40 μl of the final preparation was aliquoted into each well of a 96-well plate. The plate thus prepared was used for compound screening. THP-1 Cells Pyroptosis Assay The following method step-by-step assay was followed for compound screening. • 1. […] Add 5 μl nigericin (Sigma # N7143) (FAC 5 μM) to all wells • 5. […] At the end of the incubation period, spin plates at 300×g for 3 mins and remove supernatant • 7. Then add 50 μl of resazurin (Sigma # R7017) (FAC 100 μM resazurin in RPMI medium without FBS) and incubate plates for a further 1-2 hrs at 37° C. and 5% CO2 • 8. […] IC50 data is fitted to a non-linear regression equation (log inhibitor vs response-variable slope 4-parameters) [table]

[1] = THP-1 cells, 1.0 μg/ml LPS, nigericin 5 μM, pyroptosis read with resazurin, read-out: THP IC50

NLRP3, sequence (Q96P20 whole entry): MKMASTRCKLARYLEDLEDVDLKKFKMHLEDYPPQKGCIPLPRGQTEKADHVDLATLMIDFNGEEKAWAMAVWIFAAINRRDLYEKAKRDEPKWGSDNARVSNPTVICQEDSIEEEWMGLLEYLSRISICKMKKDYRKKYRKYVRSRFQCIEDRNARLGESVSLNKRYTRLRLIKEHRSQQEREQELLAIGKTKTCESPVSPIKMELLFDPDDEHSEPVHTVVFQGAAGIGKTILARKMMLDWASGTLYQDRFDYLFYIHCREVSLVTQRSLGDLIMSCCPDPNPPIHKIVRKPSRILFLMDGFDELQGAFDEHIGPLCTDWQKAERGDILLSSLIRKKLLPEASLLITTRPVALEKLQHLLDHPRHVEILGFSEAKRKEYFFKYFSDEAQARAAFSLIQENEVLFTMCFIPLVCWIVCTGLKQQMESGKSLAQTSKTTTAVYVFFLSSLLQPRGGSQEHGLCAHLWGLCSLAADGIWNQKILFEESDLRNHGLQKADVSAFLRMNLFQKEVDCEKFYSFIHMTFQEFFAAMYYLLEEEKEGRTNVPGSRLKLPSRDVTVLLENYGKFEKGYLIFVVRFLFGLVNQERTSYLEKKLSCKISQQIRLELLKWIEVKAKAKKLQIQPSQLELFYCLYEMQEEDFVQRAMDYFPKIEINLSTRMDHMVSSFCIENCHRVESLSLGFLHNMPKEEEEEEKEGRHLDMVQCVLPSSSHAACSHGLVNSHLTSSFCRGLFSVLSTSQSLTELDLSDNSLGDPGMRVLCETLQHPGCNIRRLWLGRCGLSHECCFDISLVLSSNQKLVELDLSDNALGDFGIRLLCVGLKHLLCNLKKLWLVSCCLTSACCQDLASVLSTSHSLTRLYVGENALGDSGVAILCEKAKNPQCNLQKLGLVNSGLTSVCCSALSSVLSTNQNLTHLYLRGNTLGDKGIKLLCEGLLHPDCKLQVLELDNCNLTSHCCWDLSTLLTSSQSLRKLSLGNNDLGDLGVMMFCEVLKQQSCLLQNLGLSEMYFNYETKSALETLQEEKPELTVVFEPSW

Question: Which IC50 [1] does the source give for Cc1ccc(S(=O)(=O)NC(=O)Nc2c3c(cc4c2CCC4)CCC3)nn1 [Example 4, N-((1,2,3,5,6,7-Hexahydro-s-indacen-4-yl)carbamoyl)-6-methylpyridazine-3-sulfonamide, Sodium Salt] here?
Answer: < 10 µM

Question: Which IC50 [1] does the source give for COc1cc(-c2ccc3c(c2NC(=O)NS(=O)(=O)c2cncc(N(C)C)n2)CCC3)ccn1 [Example 36, 6-(Dimethylamino)-N-((5-(2-methoxypyridin-4-yl)-2,3-dihydro-1H-inden-4-yl)carbamoyl)pyrazine-2-sulfonamide] here?
Answer: < 0.8 µM

Question: For COc1cc(-c2cc(F)cc(C(C)C)c2NC(=O)NS(=O)(=O)c2cnc(N(C)C)cn2)ccn1 [Example 39, 5-(Dimethylamino)-N-((4-fluoro-2-isopropyl-6-(2-methoxypyridin-4-yl)phenyl)carbamoyl)pyrazine-2-sulfonamide], which IC50 [1] is on record?
Answer: < 0.8 µM

Question: How did the IC50 [1] turn out when O=C(Nc1c2c(cc3c1CCC3)CCC2)NS(=O)(=O)c1ncccn1 [Example 3, N-((1,2,3,5,6,7-Hexahydro-s-indacen-4-yl)carbamoyl) pyrimidine-2-sulfonamide, Potassium Salt] was run?
Answer: < 1.6 µM

Question: What about the IC50 (THP-1 pyroptosis assay, bound stated, read-out: IC50 value) of the same molecule?
Answer: > 1.2 µM

Question: What does the source list for Cc1cc(N(C)C)nc(S(=O)(=O)NC(=O)Nc2c3c(cc4c2CCC4)CCC3)n1 [Example 56, 4-(Dimethylamino)-N-((1,2,3,5,6,7-hexahydro-s-indacen-4-yl)carbamoyl)-6-methylpyrimidine-2-sulfonamide, potassium salt]?
Answer: IC50 [1]: < 0.8 µM; NLRP3 inhibitory activity (in words) (THP-1 pyroptosis assay): highly active

Question: COc1ccc(S(=O)(=O)NC(=O)Nc2c3c(cc4c2CCC4)CCC3)nn1 [Example 22, N-((1,2,3,5,6,7-Hexahydro-s-indacen-4-yl)carbamoyl)-6-methoxy pyridazine-3-sulfonamide, Potassium Salt] was tested. Which IC50 [1] did it give?
Answer: < 1.6 µM

Question: Which IC50 [1] does the source give for CN(C)c1cnnc(S(=O)(=O)NC(=O)Nc2c3c(cc4c2CCC4)CCC3)c1 [Example 21, 5-(Dimethylamino)-N-((1,2,3,5,6,7-hexahydro-s-indacen-4-yl)carbamoyl)pyridazine-3-sulfonamide, Potassium Salt] here?
Answer: < 0.8 µM

Question: For O=C(Nc1c2c(cc3c1CCC3)CCC2)NS(=O)(=O)c1ccc(=O)[nH]c1 [Example 23, N-((1,2,3,5,6,7-hexahydro-s-indacen-4-yl)carbamoyl)-6-oxo-1,6-dihydropyridine-3-sulfonamide, Potassium Salt], which IC50 [1] is on record?
Answer: < 10 µM

Question: For CC(C)c1cc(F)cc(-c2ccnc(C#N)c2)c1NC(=O)NS(=O)(=O)c1cncc(N(C)C)n1 [Example 34, N-((2-(2-Cyanopyridin-4-yl)-4-fluoro-6-isopropylphenyl)carbamoyl)-6-(dimethylamino)pyrazine-2-sulfonamide], which IC50 [1] is on record?
Answer: < 0.8 µM

Question: For O=C(Nc1c2c(cc3c1CCC3)CCC2)NS(=O)(=O)c1cc(C(F)(F)F)cnn1 [Example 16, N-((1,2,3,5,6,7-Hexahydro-s-indacen-4-yl)carbamoyl)-5-(trifluoromethyl)pyridazine-3-sulfonamide, Potassium Salt], which IC50 [1] is on record?
Answer: < 10 µM

Question: With CC(C)c1cccc(C(C)C)c1NC(=O)NS(=O)(=O)c1cnccn1 [Example 6, N-((2,6-Diisopropylphenyl)carbamoyl)pyrazine-2-sulfonamide, Sodium Salt] as the molecule, how does the IC50 [1] read?
Answer: < 10 µM

Question: Which IC50 [1] does the source give for NC(=O)c1ccc(S(=O)(=O)NC(=O)Nc2c3c(cc4c2CCC4)CCC3)nn1 [Example 20, 6-(N-((1,2,3,5,6,7-Hexahydro-s-indacen-4-yl)carbamoyl)sulfamoyl) pyridazine-3-carboxamide, potassium salt] here?
Answer: < 10 µM

Question: O=C(Nc1c(-c2ccncc2)cc(F)c2c1CCC2)NS(=O)(=O)c1nccnc1C(F)F [Example 45, 3-(Difluoromethyl)-N-((7-fluoro-5-(pyridin-4-yl)-2,3-dihydro-1H-inden-4-yl)carbamoyl)pyrazine-2-sulfonamide] was tested. Which IC50 [1] did it give?
Answer: < 10 µM

Question: Which IC50 [1] does the source give for COc1cc(-c2cc(F)cc(C(C)C)c2NC(=O)NS(=O)(=O)c2nc(C)cc(C)n2)ccn1 [Example 47, N-((4-Fluoro-2-isopropyl-6-(2-methoxypyridin-4-yl)phenyl)carbamoyl)-4,6-dimethylpyrimidine-2-sulfonamide] here?
Answer: < 0.8 µM

Question: And the “NLRP3 inhibitory activity (in words)” value (THP-1 pyroptosis assay)?
Answer: highly active

Question: COc1cc(-c2cc(F)cc(C(C)C)c2NC(=O)NS(=O)(=O)c2nccnc2C(F)F)ccn1 [Example 43, 3-(Difluoromethyl)-N-((4-fluoro-2-isopropyl-6-(2-methoxypyridin-4-yl)phenyl)carbamoyl)pyrazine-2-sulfonamide] was tested. Which IC50 [1] did it give?
Answer: < 10 µM

Question: Which IC50 [1] does the source give for COc1cc(S(=O)(=O)NC(=O)Nc2c3c(cc4c2CCC4)CCC3)ncn1 [Example 19, N-((1,2,3,5,6,7-Hexahydro-s-indacen-4-yl)carbamoyl)-6-methoxypyrimidine-4-sulfonamide, Potassium Salt] here?
Answer: < 0.8 µM

Question: Which IC50 [1] does the source give for CN(C)c1cnc(S(=O)(=O)NC(=O)Nc2c3c(cc4c2CCC4)CCC3)cn1 [Example 26, 5-(Dimethylamino)-N-((1,2,3,5,6,7-hexahydro-s-indacen-4-yl)carbamoyl)pyrazine-2-sulfonamide, Potassium Salt] here?
Answer: < 0.8 µM

Question: Which IC50 [1] does the source give for COc1cc(-c2cc(F)cc(C(C)C)c2NC(=O)NS(=O)(=O)c2cncc(N(C)C)n2)ccn1 [Example 35, 6-(Dimethylamino)-N-((4-fluoro-2-isopropyl-6-(2-methoxypyridin-4-yl)phenyl)carbamoyl)pyrazine-2-sulfonamide] here?
Answer: < 0.8 µM

Question: How did the IC50 [1] turn out when O=C(Nc1c2c(cc3c1CCC3)CCC2)NS(=O)(=O)c1cnc2ccccc2n1 [Example 30, N-((1,2,3,5,6,7-Hexahydro-s-indacen-4-yl)carbamoyl)quinoxaline-2-sulfonamide, Potassium Salt] was run?
Answer: < 10 µM

Question: Which IC50 [1] does the source give for COc1cc(-c2ccc3c(c2NC(=O)NS(=O)(=O)c2nccnc2C(F)F)CCC3)ccn1 [Example 44, 3-(Difluoromethyl)-N-((5-(2-methoxypyridin-4-yl)-2,3-dihydro-1H-inden-4-yl)carbamoyl)pyrazine-2-sulfonamide] here?
Answer: < 1.2 µM

Question: With CC(C)c1cc(S(=O)(=O)NC(=O)Nc2c3c(cc4c2CCC4)CCC3)ccn1 [Example 57, N-((1,2,3,5,6,7-Hexahydro-s-indacen-4-yl)carbamoyl)-2-isopropylpyridine-4-sulfonamide, Sodium Salt] as the molecule, how does the IC50 [1] read?
Answer: < 0.8 µM

Question: O=C(Nc1c2c(cc3c1CCC3)CCC2)NS(=O)(=O)c1cncc(N2CCOCC2)n1 [Example 28, N-((1,2,3,5,6,7-Hexahydro-s-indacen-4-yl)carbamoyl)-6-morpholinopyrazine-2-sulfonamide, Potassium Salt] was tested. Which IC50 [1] did it give?
Answer: < 0.8 µM

Question: For O=C(Nc1c2c(cc3c1CCC3)CCC2)NS(=O)(=O)c1nccnc1C(F)F [Example 14, 3-(Difluoromethyl)-N-((1,2,3,5,6,7-hexahydro-s-indacen-4-yl)carbamoyl)pyrazine-2-sulfonamide, potassium salt], which IC50 [1] is on record?
Answer: < 2 µM

Question: With Cc1nccnc1S(=O)(=O)NC(=O)Nc1c2c(cc3c1CCC3)CCC2 [Example 29, N-((1,2,3,5,6,7-Hexahydro-s-indacen-4-yl)carbamoyl)-3-methylpyrazine-2-sulfonamide, Potassium Salt] as the molecule, how does the IC50 [1] read?
Answer: < 10 µM

Question: How did the IC50 [1] turn out when CCOc1ccncc1S(=O)(=O)NC(=O)Nc1c2c(cc3c1CCC3)CCC2 [Example 32, 4-Ethoxy-N-((1,2,3,5,6,7-hexahydro-s-indacen-4-yl)carbamoyl)pyridine-3-sulfonamide, Potassium Salt] was run?
Answer: < 10 µM

Question: With CN1CCN(c2cncc(S(=O)(=O)NC(=O)Nc3c4c(cc5c3CCC5)CCC4)n2)CC1 [Example 54, N-((1,2,3,5,6,7-Hexahydro-s-indacen-4-yl)carbamoyl)-6-(4-methylpiperazin-1-yl)pyrazine-2-sulfonamide, Potassium Salt] as the molecule, how does the IC50 [1] read?
Answer: < 2 µM

Question: With COc1cc(S(=O)(=O)NC(=O)Nc2c3c(cc4c2CCC4)CCC3)c(OC)nn1 [Example 12, N-((1,2,3,5,6,7-Hexahydro-s-indacen-4-yl)carbamoyl)-3,6-di methoxypyridazine-4-sulfonamide, potassium salt] as the molecule, how does the IC50 [1] read?
Answer: < 1.2 µM

Question: How did the IC50 [1] turn out when O=C(Nc1c2c(cc3c1CCC3)CCC2)NS(=O)(=O)c1cccnn1 [Example 2, N-((1,2,3,5,6,7-Hexahydro-s-indacen-4-yl)carbamoyl)pyridazine-3-sulfonamide, Potassium Salt] was run?
Answer: < 2 µM

Question: With Cc1ccc(S(=O)(=O)NC(=O)Nc2c(C(C)C)cccc2C(C)C)nn1 [Example 5, N-((2,6-Diisopropylphenyl)carbamoyl)-6-methylpyridazine-3-sulfonamide, Potassium Salt] as the molecule, how does the IC50 [1] read?
Answer: < 10 µM

Question: How did the IC50 [1] turn out when CN(C)c1cnc(S(=O)(=O)NC(=O)Nc2c(-c3ccncc3)cc(F)c3c2CCC3)cn1 [Example 41, 5-(Dimethylamino)-N-((7-fluoro-5-(pyridin-4-yl)-2,3-dihydro-1H-inden-4-yl)carbamoyl)pyrazine-2-sulfonamide] was run?
Answer: < 0.8 µM

Question: For N#Cc1nccnc1S(=O)(=O)NC(=O)Nc1c2c(cc3c1CCC3)CCC2 [Example 24, 3-Cyano-N-((1,2,3,5,6,7-hexahydro-s-indacen-4-yl)carbamoyl)pyrazine-2-sulfonamide, Potassium Salt], which IC50 [1] is on record?
Answer: < 10 µM

Question: For Cc1nn(C)c2ncc(S(=O)(=O)NC(=O)Nc3c4c(cc5c3CCC5)CCC4)cc12 [Example 31, N-((1,2,3,5,6,7-Hexahydro-s-indacen-4-yl)carbamoyl)-1,3-dimethyl-1H-pyrazolo[3,4-b]pyridine-5-sulfonamide, Potassium Salt], which IC50 [1] is on record?
Answer: < 10 µM
